# Results published in US7495147B2, “Neuregulin-1 transgenic mouse and methods of use” (deCODE genetics ehf., priority 2000, dated 2009).
# Test system: NRG1TM hypomorphic mice
# Test: open field test of locomotor activity in NRG1TM hypomorphic mice and litter-mate controls
# Format: in vivo, mouse
# Details: litter-mate control (wild-type) mice; clozapine 1 mg/kg i.p. 25 min prior to testing
# Procedure: Male NRG1TM hypomorphs, ErbB4 hypomorphs and litter-mate controls for each line were bred at Charles River Laboratories USA by crossing to a C57B16 background. They were shipped to the testing laboratory at PsychoGenics Inc. NY, USA (six weeks prior to behavioral testing) where they were housed in groups of 3-5 related mice per cage. The open field study was conducted when the male mice were 5 to 6 months of age. Group housed mice were brought into the experimental room and allowed to acclimate for one hour prior to testing. Each mouse was placed for 30 minutes in a square open field box (17×17×12 inch). Up to eight animals were tested at one time, one animal in each of eight arenas, under low lighting conditions (provided by a 15 watt red lamp). The automated infrared beam array system measured locomotion in the center and periphery of the test arena. Activity data were collected in 5 min intervals over the 30 min open field session and analyzed with a series of repeated measures analysis of variance (ANOVA) with session interval as a within-subject factor and genotype as a between-subject factor. Clozapine (1 mg/kg in 1% Tween 20, pH 6.0) was injected intraperitoneally (i.p.) 25 min before behavioral testing. Total activity data from the study with clozapine were analyzed with a two-tailed, Student's t-test. Naïve mice were used for these experiments. […]
structure (smiles),measurement,value
"CN1CCN(C2=Nc3cc(Cl)ccc3Nc3ccccc32)CC1 [Clozapine, clozapine]",open field activity of litter-mate control mice,no effect
